Experimental data from US20070099915A1, “INHIBITORS OF THE HIV INTEGRASE ENZYME” (PFIZER INC., priority 2005, published 2007).
Counter-ions that a name gives are not always drawn. Like-named read-outs stand apart in the source and are kept apart here.

Experiments:
[1] = target: T1, Full-length wild type HIV-1 integrase (SF1) (Human immunodeficiency virus type 1 group M subtype B, UniProt P04585); experiment: Integrase strand-transfer scintillation proximity assay; type: biochemical; details: strand-transfer SPA, 246 nM integrase, 50 nM host DNA, 37° C., 50 min; read-out: IC50
T1 construct: made in house; host or cells: E. coli BL21 (DE3)
Excerpt: The annealed product represents preprocessed viral ds-DNA derived from the LTR U5 sequence of the viral genome. A ds-DNA control to test for non-specific interactions was made using a 3′ di-deoxy derivative of oligonucleotide #1 annealed to oligonucleotide #2. The CA overhang at the 5′ end of the non-biotinylated strand of the ds-DNA was created artificially by using a complimentary DNA oligonucleotide shortened by 2 base pairs. This configuration eliminates the requisite 3′ processing step of the integrase enzyme prior to the strand-transfer mechanism.
The annealed product had overhanging 3′ ends of poly(dA). […] The radiolabeled product was purified using a NENSORB cartridge and stored in stabilized aqueous solution (PerkinElmer).
Reagents: Streptavidin-coated polyvinyltoluene (PVT) SPA beads were purchased from Amersham Biosciences (Piscataway, N.J.). Cesium chloride was purchased from Shelton Scientific, Inc. (Shelton, Conn.). White, polystyrene, flat-bottom, non-binding surface, 96-well plates were purchased from Corning. All other buffer components were purchased from Sigma (St. Louis, Mo.) unless otherwise indicated.
Enzyme Construction: Full-length wild type HIV-1 integrase (SF1) sequence (amino acids 1-289) was constructed in a pET24a vector (Novagen, Madison, Wis.).
Enzyme Purification: Full length wild-type HIV Integrase was expressed in E. coli BL21 (DE3) cells and induced with 1 mM isopropyl-1 thio-β-D-galactopyranoside (IPTG) when cells reached an optical density between 0.8-1.0 at 600 nm. Cells were lysed by microfluidation in 50 mM HEPES pH 7.0, 75 mM NaCl, 5 mM DTT, 1 mM 4-(2-Aminoethyl)benzenesulfonylfluoride HCl (AEBSF). Lysate was then centrifuged 20 minutes at 11 k rpm in GSA rotor in Sorvall RC-5B at 4° C. Supernant was discarded and pellet resuspended in 50 mM HEPES pH 7.0, 750 mM NaCl, 5 mM DTT, 1 mM AEBSF and homogenized in a 40 mL Dounce homogenizer for 20 minutes on ice. Homogenate was then centrifuged 20 minutes at 11 k rpm in SS34 rotor in Sorvall RC-5B at 4° C. Supernant was discarded and pellet resuspended in 50 mM HEPES pH 7.0, 750 mM NaCl, 25 mM CHAPS, 5 mM DTT, 1 mM AEBSF. Preparation was then centrifuged 20 minutes at 11 k rpm in SS34 rotor in Sorvall RC-5B at 4° C.
Supernant was then diluted 1:1 with 50 mM HEPES pH 7.0, 25 mM CHAPS, 1 mM DTT, 1 mM AEBSF and loaded onto a Q-Sepharose column pre-equilibrated with 50 mM HEPES, pH 7.0, 375 mM NaCl, 25 mM CHAPS, 1 mM DTT, 1 mM AEBSF. The flow through peak was collected and NaCl diluted to 0.1 M with 50 mM HEPES pH 7.0, 25 mM CHAPS, 1 mM DTT, 0.5 mM AEBSF and loaded onto a SP-Sepharose column pre-equilibrated with 50 mM HEPES pH 7.0, 100 mM NaCl, 25 mM CHAPS, 1 mM DTT, 0.5 mM AEBSF. After washing the column with the equilibration buffer, a 100 to 400 mM NaCl gradient was run. The eluted integrase was concentrated and run on a S-300 gel diffusion column using 50 mM HEPES pH 7.0, 500 mM NaCl, 25 mM CHAPS, 1 mM DTT, 0.5 mM AEBSF. […] All columns were run in a 4° C. cold room.
Viral DNA Bead Preparation: Streptavidin-coated SPA beads were suspended to 20 mg/mL in 25 mM 3-morpholinopropanesulfonic acid (MOPS) (pH 7.2) and 1.0% NaN3. Biotinylated viral DNA was bound to the hydrated SPA beads in a batch process by combining […] of ds-DNA to 1 mg of suspended SPA beads (10 μL of 50 μM viral DNA to 1 mL of 20 mg/mL SPA beads). The mixture was incubated at 22° C. for a minimum of 20 min. with occasional mixing followed by centrifugation at 2500 rpm for 10 min.

[2] = tested on: HIV-1 RF virus in CEM-SS cells; experiment: HIV-1 cell protection assay (XTT dye reduction); type: cell-based
Summary of the method: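 Infected CEM-SS cultures incubated six days, then XTT with phenazine methosulfate added for 4 h; viability read as formazan absorbance at 450 nm. Formazan expressed as percent of uninfected, compound-free cells; CC50 from uninfected treated cells, therapeutic index as CC50/EC50.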

[3] = Human immunodeficiency virus 1, 144 h, RF strain of HIV-1, CEM-SS cells, XTT read-out after six days, read-out: EC50
[4] = Human immunodeficiency virus 1, CEM-SS, 144 h

Row | Compound | IC50 [1] | EC50 [2, 3] | EC50 [2, 4]
1 | CN(C)C(=O)c1cccc(-c2cn(Cc3ccc(F)cc3)c3cnc4c(=O)n(O)ccc4c23)c1 [Example 8, 3-[3-(4-fluorobenzyl)-7-hydroxy-6-oxo-6,7-dihydro-3H-pyrrolo[2,3-c]-1,7-naphthyridin-1-yl]-N,N-dimethylbenzamide] | 37 nM | 5 nM | –
2 | CCOCCOCc1cn(Cc2ccc(F)cc2)c2cnc3c(c12)CCN(O)C3=O [Example 31, 1-[(2-ethoxyethoxy)methyl]-3-(4-fluorobenzyl)-7-hydroxy-3,7,8,9-tetrahydro-6H-pyrrolo[2,3-c]-1,7-naphthyridin-6-one] | 33 nM | 5 nM | –
3 | CN(C)CCc1cn(Cc2ccc(F)cc2)c2cnc3c(c12)CCN(O)C3=O [Example 104, 3-(4-fluorobenzyl)-1-(2-(dimethylamino)ethyl)-7-hydroxy-8,9-dihydro-3H-pyrrolo[2,3-c][1,7]naphthyridin-6(7H)-one] | 24 nM | 32 nM | –
4 | CC(=O)CCCOCc1cn(Cc2ccc(F)cc2)c2cnc3c(c12)CCN(O)C3=O [Example 63, 3-(4-fluorobenzyl)-7-hydroxy-1-{[(4-oxopentyl)oxy]methyl}-3,7,8,9-tetrahydro-6H-pyrrolo[2,3-c]-1,7-naphthyridin-6-one] | 10 nM | 3 nM | –
5 | O=C1c2ncc3c(c(COCCOc4ccccc4)cn3Cc3ccc(F)cc3)c2CCN1O [Example 67, 3-(4-fluorobenzyl)-7-hydroxy-1-[(2-phenoxyethoxy)methyl]-3,7,8,9-tetrahydro-6H-pyrrolo[2,3-c]-1,7-naphthyridin-6-one] | 15 nM | 1 nM | –
6 | Cc1ncccc1COCc1cn(Cc2ccc(F)cc2)c2cnc3c(c12)CCN(O)C3=O [Example 64, 3-(4-fluorobenzyl)-7-hydroxy-1-{[(2-methylpyridin-3-yl)methoxy]methyl}-3,7,8,9-tetrahydro-6H-pyrrolo[2,3-c]-1,7-naphthyridin-6-one] | 9 nM | 1 nM | –
7 | CN(C)C(=O)[C@@H]1CCCN1Cc1cn(Cc2ccc(F)cc2)c2cnc3c(c12)CCN(O)C3=O [Example 41, 1-{[3-(4-fluorobenzyl)-7-hydroxy-6-oxo-6,7,8,9-tetrahydro-3H-pyrrolo[2,3-c]-1,7-naphthyridin-1-yl]methyl}-N,N-dimethyl-L-prolinamide] | 28.1 nM | 29 nM | –
8 | Cc1cc2c(ncc3c2c(CN2CCCC2)cn3Cc2ccc(F)cc2)c(=O)n1O [Example 46, 3-(4-fluorobenzyl)-7-hydroxy-8-methyl-1-(pyrrolidin-1-ylmethyl)-3,7-dihydro-6H-pyrrolo[2,3-c]-1,7-naphthyridin-6-one] | 8.35 nM | 1.1 nM | –
9 | Cc1cc2c(ncc3c2c(CN(C)C)cn3Cc2ccc(F)cc2)c(=O)n1O [Example 42, 1-[(dimethylamino)methyl]-3-(4-fluorobenzyl)-7-hydroxy-8-methyl-3,7-dihydro-6H-pyrrolo[2,3-c]-1,7-naphthyridin-6-one] | 8.1 nM | 0.43 nM | –
10 | COCCOCc1cn(Cc2ccc(F)cc2)c2cnc3c(c12)CCN(O)C3=O [Example 22, 3-(4-fluorobenzyl)-7-hydroxy-1-[(2-methoxyethoxy)methyl]-3,7,8,9-tetrahydro-6H-pyrrolo[2,3-c]-1,7-naphthyridin-6-one] | 14 nM | 1.5 nM | –
11 | CN(CCCc1cn(Cc2ccc(F)cc2)c2cnc3c(c12)CCN(O)C3=O)Cc1ccccn1 [Example 122, 3-(4-fluorobenzyl)-7-hydroxy-1-{3-[methyl(pyridin-2-ylmethyl)amino]propyl}-3,7,8,9-tetrahydro-6H-pyrrolo[2,3-c]-1,7-naphthyridin-6-one] | 26 nM | 5 nM | –
12 | CCOCCCOCc1cn(Cc2ccc(F)cc2)c2cnc3c(c12)CCN(O)C3=O [Example 51, 1-[(3-ethoxypropoxy)methyl]-3-(4-fluorobenzyl)-7-hydroxy-3,7,8,9-tetrahydro-6H-pyrrolo[2,3-c]-1,7-naphthyridin-6-one hydrochloride] | 17 nM | – | 0.4 nM
13 | O=C1c2ncc3c(c(Cl)cn3Cc3ccc(F)cc3)c2CCN1O [Example 52, 1-chloro-3-(4-fluorobenzyl)-7-hydroxy-3,7,8,9-tetrahydro-6H-pyrrolo[2,3-c]-1,7-naphthyridin-6-one] | 19 nM | 0.91 nM | –
14 | CN1CCN(CCc2cn(Cc3ccc(F)cc3)c3cnc4c(c23)CCN(O)C4=O)CC1=O [Example 119, 3-(4-fluorobenzyl)-7-hydroxy-1-[2-(4-methyl-3-oxopiperazin-1-yl)ethyl]-3,7,8,9-tetrahydro-6H-pyrrolo[2,3-c]-1,7-naphthyridin-6-one] | 12 nM | 70 nM | –
15 | COC1CCN(C(=O)c2cn(Cc3ccc(F)cc3)c3cnc4c(c23)CCN(O)C4=O)CC1 [Example 15, 3-(4-fluorobenzyl)-7-hydroxy-1-[(4-methoxypiperidin-1-yl)carbonyl]-3,7,8,9-tetrahydro-6H-pyrrolo[2,3-c]-1,7-naphthyridin-6-one] | 14 nM | – | 28 nM
16 | C[C@H](CO)NCc1cn(Cc2ccc(F)cc2)c2cnc3c(c12)CCN(O)C3=O [Example 33, 3-(4-fluorobenzyl)-7-hydroxy-1-({[(1R)-2-hydroxy-1-methylethyl]amino}methyl)-3,7,8,9-tetrahydro-6H-pyrrolo[2,3-c]-1,7-naphthyridin-6-one] | 21 nM | 13 nM | –
17 | COC1CCN(Cc2cn(Cc3ccc(F)cc3)c3cnc4c(c23)CCN(O)C4=O)CC1 [Example 100, 3-(4-fluorobenzyl)-7-hydroxy-1-[(4-methoxypiperidin-1-yl)methyl]-3,7,8,9-tetrahydro-6H-pyrrolo[2,3-c]-1,7-naphthyridin-6-one] | 21 nM | 0.7 nM | –
18 | O=C1c2ncc3c(c(CCN4CCCC4)cn3Cc3ccc(F)cc3)c2CCN1O [Example 103, 3-(4-fluorobenzyl)-7-hydroxy-1-(2-(pyrrolidin-1-yl)ethyl)-8,9-dihydro-3H-pyrrolo[2,3-c][1,7]naphthyridin-6(7H)-one] | 24 nM | 18 nM | –
19 | O=C1c2ncc3c(c(CCO)cn3Cc3ccc(F)cc3)c2CCN1O [Example 110, 3-(4-fluorobenzyl)-7-hydro-1-(2-hydroxyethyl)-8,9-dihydro-3H-pyrrolo[2,3-c][1,7]naphthyridin-6(7H)-one] | 11 nM | 5 nM | –
20 | CC(C)COCCOCc1cn(Cc2ccc(F)cc2)c2cnc3c(c12)CCN(O)C3=O [Example 58, 3-(4-fluorobenzyl)-7-hydroxy-1-[(2-isobutoxyethoxy)methyl]-3,7,8,9-tetrahydro-6H-pyrrolo[2,3-c]-1,7-naphthyridin-6-one] | 16 nM | 0.52 nM | –
21 | CCN(C)Cc1cn(Cc2ccc(F)cc2)c2cnc3c(c12)CCN(O)C3=O [Example 71, 1-{[ethyl(methyl)amino]methyl}-3-(4-fluorobenzyl)-7-hydroxy-3,7,8,9-tetrahydro-6H-pyrrolo[2,3-c]-1,7-naphthyridin-6-one] | 27 nM | 8 nM | –
